Values quoted from earlier work as cited in US20030148386A1, “Method for drug design using comparative molecular field analysis (CoMFA) extended for multi-mode/multi-species ligand binding and disposition” (priority 2001, published 2003).

Molecular target: T1, aryl hydrocarbon (Ah) receptor (Rattus norvegicus, UniProt P41738)
T1 sequence (P41738 10-853): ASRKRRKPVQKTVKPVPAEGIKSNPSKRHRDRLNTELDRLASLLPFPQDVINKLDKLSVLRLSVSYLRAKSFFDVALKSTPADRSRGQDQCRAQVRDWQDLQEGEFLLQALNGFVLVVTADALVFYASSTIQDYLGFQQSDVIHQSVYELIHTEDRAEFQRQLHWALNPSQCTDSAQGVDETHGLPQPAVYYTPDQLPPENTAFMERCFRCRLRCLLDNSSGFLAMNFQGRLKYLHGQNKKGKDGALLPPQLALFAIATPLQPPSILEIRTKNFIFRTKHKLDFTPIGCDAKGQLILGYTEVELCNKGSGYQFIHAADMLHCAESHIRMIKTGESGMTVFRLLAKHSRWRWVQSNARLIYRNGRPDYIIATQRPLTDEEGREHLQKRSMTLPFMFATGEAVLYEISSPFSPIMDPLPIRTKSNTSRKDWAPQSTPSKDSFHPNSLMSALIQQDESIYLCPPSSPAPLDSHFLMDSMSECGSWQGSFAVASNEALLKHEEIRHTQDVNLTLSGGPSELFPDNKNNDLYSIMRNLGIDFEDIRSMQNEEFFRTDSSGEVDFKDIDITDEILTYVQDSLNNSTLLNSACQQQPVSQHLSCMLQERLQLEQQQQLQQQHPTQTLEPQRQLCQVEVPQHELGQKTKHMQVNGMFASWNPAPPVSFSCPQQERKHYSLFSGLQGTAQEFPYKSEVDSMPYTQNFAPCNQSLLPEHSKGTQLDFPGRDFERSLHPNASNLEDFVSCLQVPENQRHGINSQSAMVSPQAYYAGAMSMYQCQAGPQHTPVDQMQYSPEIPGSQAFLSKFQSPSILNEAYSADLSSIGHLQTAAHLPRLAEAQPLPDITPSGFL
Conditions: for pEC50 observed: pEC50=-log(EC50)=logKi, EC50 in mol/L, displacement of radiolabeled TCDD

Row | SMILES | pEC50 observed | binding affinity to the Ah receptor (in words)
1 | Clc1ccc2c(c1)oc1ccccc12 [Compound 03] | 4.377 ± 0.058 | –
2 | Clc1cc(Cl)c2c(c1)oc1c(Cl)cccc12 [Compound 08] | 5.357 | –
3 | Clc1cc(Cl)c2c(c1)oc1ccc(Cl)cc12 [Compound 09] | 4.071 | –
4 | Clc1cc2oc3c(Cl)cccc3c2c(Cl)c1Cl [Compound 13] | 6.456 | –
5 | Clc1ccc2c(c1)oc1cc(Cl)c(Cl)c(Cl)c12 [Compound 14] | 6.959 | –
6 | Clc1cc2c(oc3c(Cl)cccc32)c(Cl)c1Cl [Compound 16] | 6.456 | –
7 | Clc1ccc2c(c1)oc1c(Cl)c(Cl)c(Cl)cc12 [Compound 17] | 7.602 | –
8 | Clc1ccc2oc3c(Cl)c(Cl)c(Cl)cc3c2c1 [Compound 18] | 6.699 | –
9 | Clc1cc(Cl)c2oc3cc(Cl)c(Cl)cc3c2c1 [Compound 19] | 6.658 | –
10 | Clc1cc2oc3cc(Cl)c(Cl)cc3c2cc1Cl [Compound 20] | 7.387 ± 0.059 | –
11 | Clc1ccc2oc3c(Cl)c(Cl)c(Cl)c(Cl)c3c2c1 [Compound 21] | 6.921 | –
12 | Clc1cc2oc3cc(Cl)c(Cl)c(Cl)c3c2cc1Cl [Compound 22] | 7.128 ± 0.105 | –
13 | Clc1cc(Cl)c2c(c1)oc1cc(Cl)c(Cl)c(Cl)c12 [Compound 23] | 6.398 | –
14 | Clc1ccc2c(oc3c(Cl)cc(Cl)c(Cl)c32)c1Cl [Compound 24] | 7.169 | –
15 | Clc1cc(Cl)c2oc3c(Cl)cc(Cl)c(Cl)c3c2c1 [Compound 25] | 5.509 | –
16 | Clc1cc2oc3c(Cl)cc(Cl)c(Cl)c3c2cc1Cl [Compound 26] | 5.886 | –
17 | Clc1cc(Cl)c2c(c1)oc1c(Cl)cc(Cl)c(Cl)c12 [Compound 27] | 4.699 | –
18 | Clc1cc2oc3c(Cl)c(Cl)cc(Cl)c3c2cc1Cl [Compound 28] | 6.699 | –
19 | Clc1cc2oc3c(Cl)c(Cl)c(Cl)cc3c2cc1Cl [Compound 29] | 7.824 ± 0.028 | highest binding affinity
20 | Clc1cc(Cl)c2c(c1)oc1c(Cl)c(Cl)c(Cl)cc12 [Compound 30] | 6.699 | –
21 | Clc1cc2oc3c(Cl)c(Cl)c(Cl)c(Cl)c3c2cc1Cl [Compound 31] | 6.638 | –
22 | Clc1cc2c(oc3cc(Cl)c(Cl)c(Cl)c32)c(Cl)c1Cl [Compound 32] | 6.569 ± 0.137 | –
23 | Clc1cc2c(oc3c(Cl)cc(Cl)c(Cl)c32)c(Cl)c1Cl [Compound 33] | 5.081 | –
24 | Clc1cc2c(oc3c(Cl)c(Cl)c(Cl)cc32)c(Cl)c1Cl [Compound 34] | 7.328 ± 0.036 | –
25 | Clc1cc2c(cc1Cl)Oc1cc(Cl)c(Cl)cc1O2 [TCDD, 2,3,7,8-tetrachloro dibenzodioxin, reference compound] | – | highest binding affinity
